Series [1] concerns A-427. The experiment in a line: MTT test, cytotoxic activity on non-clonogenic cell lines. The note with it: Homo sapiens, 10^−5 M, 72 hours of incubation, control condition = 100%, mean value, read-out: mean optical density as percentage of control, A-427. It is filed as cell-based. The method, then: (§1) The principle of the MTT test is based on the mitochondrial reduction, by the metabolically active live cells, of the yellow-colored product MTT (3-(4,5-dimethylthiazol-2-yl)-2,5-diphenyltetrazolium bromide) to a blue-colored product, formazan. The amount of formazan thus obtained is directly proportional to the amount of live cells present in the culture well(s). This amount of formazan is measured by spectrophotometry.
(§2) The cell lines are maintained as a monolayer culture at 37° C. in stoppered culture dishes containing MEM 25 MM HEPES (Minimum Essential Medium) base medium. This medium is suited to the growth of a range of various mammalian diploid or primary cells. This medium is then supplemented with:
(§3) The 12 human cancer cell lines which were used were obtained from the American Type Culture Collection (ATCC, Rockville, Md., USA). These 12 cell lines are:
(§4) Experimentally, 100 μl of a cell suspension containing 20 000 to 50 000 (depending on the cell type used) cells/ml of culture medium are inoculated -in 96-well flat-bottomed multi-well plates and are left to stand in an incubator at 37° C., 5% CO2 and 70% humidity. After an incubation time of 24 hours, the culture medium is replaced with 100 μl of fresh medium containing either the various test compounds—at concentrations varying from 10^−5 to 10^−10 M—or the solvent having served for dissolving the products to be tested (control condition). […] The microplates are thus incubated for 3 hours at 37° C., then centrifuged for 10 minutes at 400 g. The yellowish solution of MTT is removed and the blue formazan crystals formed in the cell region are dissolved in 100 μl or DMSO. The microplates are then shaken for 5 minutes. […] Software incorporated in the spectrophotometer calculates the average optical density values and the standard deviation (SD) and standard error of mean (SEM) values.

Series [2] concerns A549. Described as above. It is filed as cell-based. The note with it: Homo sapiens, 10^−5 M, 72 hours of incubation, control condition = 100%, mean value, read-out: mean optical density as percentage of control, A549. Here is the method:
as §1, §2, §3, §4

Series [3] concerns HCT-15. Described as above. Type of series: cell-based. As to conditions: Homo sapiens, 10^−5 M, 72 hours of incubation, control condition = 100%, mean value, read-out: mean optical density as percentage of control, HCT-16. Here is the method:
as §1, §2, §3, §4

Series [4] deals with LoVo. Described as above. It is filed as cell-based. The note with it: Homo sapiens, 10^−5 M, 72 hours of incubation, control condition = 100%, mean value, read-out: mean optical density as percentage of control, LoVo. The method, then: as §1, §2, §3, §4
For series [5], the system named is MCF7. The series is described as above. As to conditions: Homo sapiens, 10^−5 M, 72 hours of incubation, control condition = 100%, mean value, read-out: mean optical density as percentage of control, MCF7. It is filed as cell-based. Here is the method: as §1, §2, §3, §4
Series [6] concerns PC-3. Described as above. The note with it: Homo sapiens, 10^−5 M, 72 hours of incubation, control condition = 100%, mean value, read-out: mean optical density as percentage of control, PC-3. It is filed as cell-based. The method, then:
as §1, §2, §3, §4

Series [7] has as its system T-47D. The series is described as above. The note with it: Homo sapiens, T47D; 10^−5 M, 72 hours of incubation, control condition = 100%, mean value; read-out: mean optical density as percentage of control, T-47D. Type of series: cell-based. Here is the method:
as §1, §2, §3, §4

Series [8] has as its system U-373MG. The description is as above. It is filed as cell-based. The note with it: Homo sapiens, U373 MG; 10^−5 M, 72 hours of incubation, control condition = 100%, mean value; read-out: mean optical density as percentage of control, U-373MG. The method, then:
as §1, §2, §3, §4

For series [9], the system named is U-87MG. The description is as above. Type of series: cell-based. As to conditions: Homo sapiens, U-87 MG; 10^−5 M, 72 hours of incubation, control condition = 100%, mean value; read-out: mean optical density as percentage of control, U-87MG. Here is the method:
as §1, §2, §3, §4

Series [10] has as its system SW1088. The description is as above. The note with it: Homo sapiens, 10^−5 M, 72 hours of incubation, control condition = 100%, mean value, read-out: mean optical density as percentage of control, SW1088. It is filed as cell-based. Here is the method:
as §1, §2, §3
SW1088 (code ATCC: HTB-12) which is an astro-cytoma,
as §4

The test system of series [11] is J82. Described as above. Type of series: cell-based. As to conditions: Homo sapiens, 10^−5 M, 72 hours of incubation, control condition = 100%, mean value, read-out: mean optical density as percentage of control, J82. Here is the method:
as §1, §2, §3
(§5) J82 (code ATCC: HTB-1) and T24 (code ATCC: HTB-4) which are two bladder cancers,
as §4

Series [12] deals with T24. The description is as above. It is filed as cell-based. The note with it: Homo sapiens, T-24; 10^−5 M, 72 hours of incubation, control condition = 100%, mean value; read-out: mean optical density as percentage of control, T24. The method, then:
as §1, §2, §3, §5, §4

The nature of series [13]: Determination of the maximum tolerated dose (MTD). The note with it: B6D2F1/Jico, mouse, in vivo, ip; single intraperitoneal administration, doses 2.5 to 160 mg/kg, survival over 14 days. Here is the method:
The evaluation of the maximum tolerated dose was performed on 4- to 6-week-old B6D2F1/Jico mice. The compounds were administered intraperitoneally at increasing doses ranging from 2.5 to 160 mg/kg. The value of the MTD (expressed in mg/kg) is determined from the observation of the survival rate of the animals over a 14-day period after a single administration of the product under consideration. The change in weight of the animals is also monitored during this period. When the MTD value is greater than 160 mg/kg, the MTD value is considered as being 160 mg/kg by default.

SMILES strings stand for the structures.

The MTD is the highest dose tested that stayed within the study's limit of toxicity. Low values mean a narrow tolerated range, high ones a wide tolerated range. Turning to `COc1ccc(-c2c[nH]c3c(OC)ccc(OC)c3c2=O)cc1` [CRL8351, 5,8-Dimethoxy-3-(4-methoxyphenyl)-1,4-dihydro-4-quinolinone], the viability at 10 µM in series [1] stood at 33.7%; in series [2] it was 34.6%; in series [3] it was 39.1%; in series [4], 67%; in [5] it was 49%; in [6] it was 83.2%. The viability at 10 µM in series [7] was found to be 55%; in [8] it was 52.8%; in series [9] it was 116%; in [10] it was 82.3%; in series [11], 39.2%; in series [12], 38.4%. For the same compound, the MTD at 14 day in series [13] stood at 40 mg/kg.
For `COc1cc(OC)c2c(=O)c(-c3ccccc3)c[nH]c2c1` [CRL8352, 5,7-Dimethoxy-3-phenyl-1,4-dihydro-4-quinolinone], the viability at 10 µM in series [1] is 103%; in series [2], 94.2%; in [3] it was 106%; in [4], 103%; in series [5] it was 85.6%; in [6], 97.3%. The viability at 10 µM in series [7] worked out at 105%; in [8], 104%; in series [9], 158%; in series [10] it was 96.8%; in [11], 93%; in [12], 83.7%. Moreover, in series [13], the MTD at 14 day was greater than 160 mg/kg.
As for `COc1ccc(OC)c2c(=O)c(-c3ccccc3)c[nH]c12` [CRL8353, 5,8-Dimethoxy-3-phenyl-1,4-dihydro-4-quinolinone], the viability at 10 µM in [1] came out at 52.5%; in series [2], 42.3%; in series [3], 55.7%; in [4] it was 85.5%; in [5] it was 49.6%; in series [6], 81%. For the same compound, the viability at 10 µM in series [7] worked out at 87.2%; in series [8], 54.5%; in series [9], 107%; in series [10] it was 74%; in series [11] it was 79.1%; in series [12], 68.6%. This compound also had an MTD at 14 day in [13] greater than 160 mg/kg.
For the compound `COc1ccc(-c2c[nH]c3cc(OC)c(OC)cc3c2=O)cc1` [CRL8354, 6,7-Dimethoxy-3-(4-methoxyphenyl)-1,4-dihydro-4-quinolinone], the viability at 10 µM in [1] was found to be 97.2%; in [2], 98.5%; in [3], 95.9%; in [4], 98.4%; in series [5] it was 102%; in series [6], 93.7%. Also, the viability at 10 µM in series [7] stood at 104%; in [8] it was 97.7%; in series [9], 102%; in series [10] it was 93.2%; in series [11] it was 98.2%; in series [12] it was 91.4%. In addition, the MTD at 14 day in series [13] was greater than 160 mg/kg.
Turning to `COc1cc2[nH]cc(-c3ccccc3)c(=O)c2cc1OC` [CRL8355, 6,7-Dimethoxy-3-phenyl-1,4-dihydro-4-quinolinone], the viability at 10 µM came out at 103% in [1]; 98.6% in series [2]; 99.5% in [3]; 98.7% in [4]; 94.8% in [5]; 100% in series [6]. Besides, the viability at 10 µM in series [7] was found to be 98.5%; in [8], 97.7%; in series [9] it was 94.4%; in [10], 97.5%; in series [11], 94.9%; in series [12], 89.4%. The compound further yielded an MTD at 14 day in [13] greater than 160 mg/kg.
As to `COc1ccc(-c2cn(CCCN(C)C)c3cc(OC)cc(OC)c3c2=O)cc1` [CRL8357, N-[3-(Dimethylamino)propyl]-5,7-dimethoxy-3-(4-methoxyphenyl)-1,4-dihydro-4-quinolinone], the viability at 10 µM was 59.5% in series [1]; 73.3% in series [2]; 79.5% in [3]; 97.9% in [4]; 95.8% in series [5]; 85.6% in series [6]. Moreover, the viability at 10 µM came to 94.1% in [7]; 96% in series [8]; 84.4% in [9]; 69.6% in series [10]; 84.7% in series [11]; 99% in series [12]. For the same compound, in series [13], the MTD at 14 day turned out to be 80 mg/kg.
As for `COc1ccc(-c2c[nH]c3cc(OC)ccc3c2=O)cc1` [CRL8358, 7-Methoxy-3-(4-methoxyphenyl)-1,4-dihydro-4-quinolinone], the viability at 10 µM in series [1] was 34.5%; in [2], 55%; in series [3] it was 89.1%; in series [4] it was 38%; in [5], 84.1%; in [6], 89.1%. Further, the viability at 10 µM in [7] came to 92.1%; in series [8] it was 41%; in series [9], 80.1%; in series [10], 98.3%; in [11], 92.7%; in [12], 90.7%. The same compound displayed an MTD at 14 day in series [13] greater than 160 mg/kg.
`COc1ccc2c(=O)c(-c3ccccc3)c[nH]c2c1` [CRL8359, 7-Methoxy-3-phenyl-1,4-dihydro-4-quinolinone]: the viability at 10 µM is 25.8% in series [1]; 73.9% in series [2]; 59.9% in series [3]; 30.9% in series [4]; 65.8% in series [5]; 123% in series [6]. Besides, the viability at 10 µM in series [7] was 41.2%; in series [8], 41.2%; in [9], 114%; in series [10], 140%; in series [11] it was 52.2%; in series [12], 34.7%. The same compound came in with an MTD at 14 day in series [13] greater than 160 mg/kg.

Source of the values: patent publication US6645983B1, “Pharmaceutical compositions comprising 4-quinolones for treating cancers” (Laboratoire L. Lafon, priority 1999, dated 2003).
